From US20160311886A1, “Constructs Binding to Phosphatidylserine and Their Use in Disease Treatment and Imaging” (Board of Regents, The University of Texas System, priority 2005, published 2016)

Columns and labels:
[1] = tested on: ABAE cells; test: Induction of PS exposure, 125I-annexin V binding; type: cell-based, bovine
Experimental: (§1) All reagents were diluted in medium containing 10% serum and incubated with the cells at 37° C. for 24 h.
(§2) To study the effect of hypoxia, cells were seeded on 24 well plates and were incubated in a humidified normoxic atmosphere (21% O2, 5% CO2) for 48 h before being transferred to a humidified hypoxic atmosphere (1% O2, 5% CO2, 94% N2) in a sealed chamber (Billups Rothenberg Inc., Del Mar, Ca). Cells were incubated in a hypoxic chamber for 24 h at 37° C. and were then returned to a normoxic environment for 4 h at 37° C. The cells were compared to a parallel culture from an identical passage, seeded on the same day and maintained entirely under normoxic conditions. In some studies, IL-1α (10 ng/ml) and TNFα (20 ng/ml) were added to the medium before transfer to the hypoxic chamber.
(§3) After treatment with the reagents described above, treated and control cells were incubated with 7.1 pmoles of ^125I-labeled annexin V (200 μl/well) in the binding buffer. After 2 h incubation at room temperature, cells were washed extensively and dissolved in 0.5 M of NaOH. The entire volume of 0.5 ml was transferred to plastic tubes and counted in a gamma counter. Non-specific binding was determined in the presence of 5 mM EDTA and was subtracted from experimental values. The results were expressed as net pmoles of cell-bound annexin V, normalized per 1×10^6 cells.
(§4) Maximal binding of annexin V was determined on cells simultaneously treated with actinomycin D and TNFα (50 ng/ml of each component). As has been previously reported, these agents cause apoptosis and PS exposure in 90-100% of endothelial cells (Lucas et al., 1998). Basal binding of ^125I-annexin V to untreated cells was determined in the presence of medium with 10% serum. The amount of ^125I-annexin V that bound to the untreated cultures was subtracted from that in the treated cultures. Exposure of PS was calculated according to the following formula: cell-bound annexin V (pmoles) under experimental conditions divided by maximal annexin V binding (pmoles), multiplied by 100. Each study was performed in duplicate and was performed at least three times. Mean values were calculated. The SE of the mean values from three separate experiments was less than 5%.

[2] = tested on: bEnd.3 cells; test: Induction of PS exposure, 125I-annexin V binding; type: cell-based, mouse
Experimental: as §1, §2, §3, §4

[3] = tested on: drug-resistant breast tumors; test: 3G4 and cisplatin against drug-resistant breast tumors; type: in vivo, mouse; conditions: treated after day 20
Source text: Mice were inoculated with drug-resistant breast tumors and treated after day 20.

[4] = tested on: ABAE cells with exposed PS; test: Live-cell binding assay on LPC-treated endothelial cells; type: cell-based, bovine
Experimental: Adult bovine aortic endothelial (ABAE) cells were maintained in DMEM supplemented with 10% FBS and 2 mM L-glutamine. ABAE cells were removed from subconfluent cultures by brief exposure to 0.25% trypsin/0.02% EDTA, and 8-well chamber slides were seeded with 2×10^4 cells/well. Following overnight culture, cells were washed gently with PBS and treated with 200 μM lysophosphatidylcholine (LPC) to induce PS exposure.
PS exposure was determined by immunofluorescence staining. Cells were washed thoroughly in PBS, fixed in 4% paraformaldehyde (w/v), and incubated with a biotin-conjugated anti-mouse secondary antibody. Next, cells were incubated with FITC-conjugated streptavidin (Jackson Immunoresearch) to detect antibody binding. Cells were then permeablized with 0.1% Triton-X100 in PBS and counterstained with Texas Red-conjugated phalloidin (Molecular Probes, Eugene, Oreg.), and 4′, 6-diamidino-2-phenylindole (DAPI; Molecular Probes). Images were captured using a Coolsnap digital camera (Photometrics, Tucson, Ariz.) mounted on a Nikon microscope and processed with MetaVue software (Universal Imaging Corporation, Downingtown, Pa.).
The area of antibody binding was determined using MetaVue image analysis software, which is able to quantify the number of illuminated pixels in an image. Images of FITC fluorescence were used to quantify antibody binding. Corresponding images of DAPI fluorescence were used to normalize the FITC images for the number of cells present in the field. A small FITC/DAPI ratio indicates a small antibody binding area, whereas a large FITC/DAPI ratio indicates a large binding area. The FITC/DAPI ratios were used to determine increases or decreases in antibody binding area relative to a basal amount of antibody binding under the selected conditions. Five images at 200× magnification were used for each analysis. Data are presented as average relative FITC/DAPI ratios with error bars representing the standard deviation.
Cells were then washed, fixed, and stained with fluorescent markers to visualize binding of antibody to the cell surface.

[5] = Binding of ch3G4 and 2aG4 to phospholipid-coated ELISA plates; conditions: vs 3G4
[6] = Phospholipid specificity ELISA; type: binding
Experimental: The specificity of the antibodies was determined by ELISA using plates coated with the following phospholipids: PS, phosphatidylserine; PE, phosphatidylethanolamine; PI, phosphatidylinositol; PA, phosphatidic acid; PG, phosphatidylglycerol; PC, phosphatidylcholine; CL, cardiolipin; and SM, sphingomyelin.

[7] = Serum dependence of binding to PS
Experimental: The serum dependence or independence of the antibodies is also set forth in Table 2 (see also, Example XXX).
The 1B9, 2G7 and 7C5 antibodies behave essentially the same. These antibodies recognize only PS and require serum or serum proteins for binding to PS. The binding of 1B9, 2G7 and 7C5 to various phospholipids in the present example was assayed only in the presence of 10% bovine serum, whereas binding of the other antibodies was tested either in the absence or in the presence of serum.

[8] = tested on: WiDr (colon carcinoma); test: WiDr colon carcinoma model; type: in vivo, mouse; conditions: 100 μg 3×/week from day 5; preliminary study
Experimental: Treatment was started on day 5, when the tumors were small (10 mice per group). 100 μg of each antibody was injected 3×/week and tumor growth monitored.

[9] = Hypoxia (1% O2) + TNFα 20 ng/ml
[10] = Hypoxia (1% O2) + IL-1α 10 ng/ml

With TNFα the “125I-Annexin V (% of Max binding)” value ([1]; 20 ng/ml, 24 h) was 7.4 % of Max binding, the “125I-Annexin V (% of Max binding)” value [1, 9] was 33.0 % of Max binding and the “125I-Annexin V (% of Max binding)” value ([2]; 20 ng/ml, 24 h) was 13.7 % of Max binding. The “125I-Annexin V (% of Max binding)” value [2, 9] was 36.0 % of Max binding.

For FGF-2: human fibroblast growth factor-2, the “125I-Annexin V (% of Max binding)” value ([1]; 20 ng/ml, 24 h) was 0 % of Max binding and the “125I-Annexin V (% of Max binding)” value ([2]; 20 ng/ml, 24 h) was 0 % of Max binding.

In the case of VEGF, the “125I-Annexin V (% of Max binding)” value ([1]; 20 ng/ml, 24 h) is reported as 0 % of Max binding and the “125I-Annexin V (% of Max binding)” value ([2]; 20 ng/ml, 24 h) is reported as 0 % of Max binding.

With IL-8: interleukin-8 the “125I-Annexin V (% of Max binding)” value ([1]; 20 ng/ml, 24 h) was 0 % of Max binding and the “125I-Annexin V (% of Max binding)” value ([2]; 20 ng/ml, 24 h) was 0 % of Max binding.

For “TGF β1: growth factor tested on endothelial cells”, the “125I-Annexin V (% of Max binding)” value ([1]; 20 ng/ml, 24 h) was 0 % of Max binding and the “125I-Annexin V (% of Max binding)” value ([2]; 20 ng/ml, 24 h) was 0 % of Max binding.

In the case of `N.N.[Cl][Pt][Cl]` [cisplatin, reference compound], the anti-tumor response [3] is reported as “tumor growth was slowed”.

In the case of IL-10: interleukin-10, the “125I-Annexin V (% of Max binding)” value ([1]; 20 ng/ml, 24 h) is reported as 0 % of Max binding and the “125I-Annexin V (% of Max binding)” value ([2]; 20 ng/ml, 24 h) is reported as 0 % of Max binding.

With “Scatter factor: Recombinant hepatocyte growth factor (HGF or scatter factor)” the “125I-Annexin V (% of Max binding)” value ([1]; 40 ng/ml, 24 h) was 0 % of Max binding and the “125I-Annexin V (% of Max binding)” value ([2]; 40 ng/ml, 24 h) was 0 % of Max binding.

With “GM-CSF: cytokine tested on endothelial cells” the “binding of 125I-annexin V above the basal level for untreated cells” value ([1]; ABAE and bEnd.3 cells) was “did not increase binding”.

With Thrombin the “125I-Annexin V (% of Max binding)” value ([1]; 50 nM, 24 h) was 8.8 % of Max binding and the “125I-Annexin V (% of Max binding)” value ([2]; 50 nM, 24 h) was 17.4 % of Max binding.

With IL-6: interleukin-6 the “125I-Annexin V (% of Max binding)” value ([1]; 20 ng/ml, 24 h) was 0 % of Max binding and the “125I-Annexin V (% of Max binding)” value ([2]; 20 ng/ml, 24 h) was 0 % of Max binding.

B1: nicked hβ2GPI: hβ2GPI cleaved by plasmin at Lys317/Thr318; non-lipid binding form (protein)
chain: GRTCPKPDDLPFSTVVPLKTFYEPGEEITYSCKPGYVSRGGMRKFICPLTGLWPINTLKCTPRVCPFAGILENGAVRYTTFEYPNTISFSCNTGFYLNGADSAKCTEEGKWSPELPVCAPIICPPPSIPTFATLRVYKPSAGNNSLYRDTAVFECLPQHAMFGNDTITCTTHGNWTKLPECREVKCPFPSRPDNGFVNYPAKPTLYYKDKATFGCHDGYSLDGPEEIECTKLGNWSAMPSCKASCKLPVKKATVVYQGERVKIQEKFKNGMLHGDKVSFFCKNKEKKCSYTEDAQCIDGTIEVPKCFKEHSSLAFWKTDASDVKPC
In the case of B1, the “mediation of ch3G4 binding to ABAE cells with exposed PS” value ([4]; 2 μg/ml, LPC) is reported as “not able to mediate binding”.

B2: IL-1α: Recombinant murine interleukin-1 alpha (protein, UniProt P01582 115-270, looked up)
Interleukin-1 alpha: SAPYTYQSDLRYKLMKLVRQKFVMNDSLNQTIYQDVDKHYLSTTWLNDLQQEVKFDMYAYSSGGDDSKYPVTLKISDSQLFVSAQGEDQPVLLKELPETPKLITGSETDLIFFWKSINSKNYFTSAAYPELFIATKEQSRVHLARGLPSMTDFQIS
In the case of B2, the “125I-Annexin V (% of Max binding)” value ([1]; 10 ng/ml, 24 h) is reported as 6.4 % of Max binding, the “125I-Annexin V (% of Max binding)” value [1, 10] is reported as 26.0 % of Max binding and the “125I-Annexin V (% of Max binding)” value ([2]; 10 ng/ml, 24 h) is reported as 7.5 % of Max binding. For the same molecule, the “125I-Annexin V (% of Max binding)” value [2, 10] was 31.0 % of Max binding.

B3: 3G4 Fab′: Monovalent fragment of 3G4 (antibody)
VH: EVQLQQSGPELEKPGASVKLSCKASGYSFTGYNMNWVKQSHGKSLEWIGHIDPYYGDTSYNQKFRGKATLTVDKSSSTAYMQLKSLTSEDSAVYYCVKGGYYGHWYFDVWGAGTTVTVSSATTTAPSVYPLVP
light: DIQMTQSPSSLSASLGERVSLTCRASQDIGSSLNWLQQGPDGTIKRLIYATSSLDSGVPKRFSGSRSGSDYSLTISSLESEDFVDYYCLQYVSSPPTFGAGTKLELKRADAAPTVSIFPPSSEQLTSGGASVVCFLNNFYPKDINVKWKIDGSERQNGVLNSWTDQDSKDSTYSMSSTLTLTKDEYERHNSYTCEATHKTSTSPIVKSFNRNEC
With B3 the “inhibition of ch3G4/β2GPI binding” value ([4]; 20 nM ch3G4, 40 nM hβ2GPI) was “inhibited ch3G4/β2GPI binding to LPC-treated ABAE cells in a concentration-dependent manner”, the “binding to LPC-treated ABAE cells” value ([4]; 20 nM, DMEM+10% FBS) was “negligible” and the “binding to ABAE cells” value ([4]; 2 μM, 40 nM hβ2GPI) was “No binding”.

B4: 2aG4: Recombinant mouse IgG2a isotype of 3G4; SEQ ID NO:10 and 11 (antibody, listed as Mus musculus)
heavy: MGWTWIFILILSVTTGVHSEVQLQQSGPELEKPGASVKLSCKASGYSFTGYNMNWVKQSHGKSLEWIGHIDPYYGDTSYNQKFRGKATLTVDKSSSTAYMQLKSLTSEDSAVYYCVKGGYYGHWYFDVWGAGTTVTVSSAKTTAPSVYPLAPVCGDTTGSSVTLGCLVKGYFPEPVTLTWNSGSLSSGVHTFPAVLQSDLYTLSSSVTVTSSTWPSQSITCNVAHPASSTKVDKKEPRGPTIKPCPPCKCPAPNLLGGPSVFIFPPKIKDVLMISLSPIVTCVVVDVSEDDPDVQISWFVNNVEVHTAQTQTHREDYNSTLRVVSALPIQHQDWMSGKEFKCKVNNKDLPAPIERTISKPKGSVRAPQVYVLPPPEEEMTKKQVTLTCMVTDFMPEDIYVEWTNNGKTELNYKNTEPVLDSDGSYFMYSKLRVEKKNWVERNSYSCSVVHEGLHNHHTTKSFSRTPGK
light: MDMRAPAQILGFLLLLFPGTRCDIQMTQSPSSLSASLGERVSLTCRASQDIGSSLNWLQQGPDGTIKRLIYATSSLDSGVPKRFSGSRSGSDYSLTISSLESEDFVDYYCLQYVSSPPTFGAGTKLELKRADAAPTVSIFPPSSEQLTSGGASVVCFLNNFYPKDINVKWKIDGSERQNGVLNSWTDQDSKDSTYSMSSTLTLTKDEYERHNSYTCEATHKTSTSPIVKSFNRNEC
With B4 the “affinity and specificity in PS-ELISA” value [5] was “essentially the same as for 3G4”, the “Relative Strength of Reactivity on ELISA” value [6] was “PS = PA = PI = PG = CL >> PE” and the “Serum cofactor?” value [7] was “Yes”. The tumor growth [8] was “slowed tumor growth to essentially the same degree”.

B5: IL-1β: Recombinant murine interleukin-1 beta (protein, UniProt P10749 118-269, looked up)
Interleukin-1 beta: VPIRQLHYRLRDEQQKSLVLSDPYELKALHLNGQNINQQVIFSMSFVQGEPSNDKIPVALGLKGKNLYLSCVMKDGTPTLQLESVDPKQYPKKKMEKRFVFNKIEVKSKVEFESAEFPNWYISTSQAEHKPVFLGNNSGQDIIDFTMESVSS
With B5 the “125I-Annexin V (% of Max binding)” value ([1]; 10 ng/ml, 24 h) was 5.8 % of Max binding and the “125I-Annexin V (% of Max binding)” value ([2]; 10 ng/ml, 24 h) was 5.5 % of Max binding.
